Here are results for 1 compound from ChEMBL document CHEMBL4422672 (J Med Chem, 2019).

Assay [1] deals with T1, Fatty-acid amide hydrolase 1 (Mus musculus) (UniProt O08914).
T1 sequence (whole entry): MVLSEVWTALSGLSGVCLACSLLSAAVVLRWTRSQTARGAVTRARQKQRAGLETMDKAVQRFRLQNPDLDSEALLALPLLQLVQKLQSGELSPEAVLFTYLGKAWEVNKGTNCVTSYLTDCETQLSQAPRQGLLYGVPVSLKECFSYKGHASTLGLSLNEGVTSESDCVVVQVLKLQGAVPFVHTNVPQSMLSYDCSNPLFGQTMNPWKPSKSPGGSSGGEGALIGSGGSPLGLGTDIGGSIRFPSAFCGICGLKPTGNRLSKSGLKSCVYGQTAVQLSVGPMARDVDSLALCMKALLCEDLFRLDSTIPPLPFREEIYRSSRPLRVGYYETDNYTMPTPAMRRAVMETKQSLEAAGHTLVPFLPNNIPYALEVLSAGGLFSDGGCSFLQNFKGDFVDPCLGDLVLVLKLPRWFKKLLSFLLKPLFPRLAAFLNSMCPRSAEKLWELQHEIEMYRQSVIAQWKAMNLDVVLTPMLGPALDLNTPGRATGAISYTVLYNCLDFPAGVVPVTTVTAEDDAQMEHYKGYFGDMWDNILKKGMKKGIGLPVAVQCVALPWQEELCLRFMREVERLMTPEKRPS
Briefly: Inhibition of FAAH in mouse brain membrane assessed as protein band intensity at 6.25 uM pre-incubated for 25 mins followed by TAMRA-FP probe labeling for 5 mins by SDS-PAGE analysis relative to control. The arrangement: scale not given: the % may be the effect or the level left. It is filed as cell membranes.

The target in assay [2] is T2, Monoglyceride lipase (Mus musculus) (UniProt O35678).
T2 sequence (whole entry): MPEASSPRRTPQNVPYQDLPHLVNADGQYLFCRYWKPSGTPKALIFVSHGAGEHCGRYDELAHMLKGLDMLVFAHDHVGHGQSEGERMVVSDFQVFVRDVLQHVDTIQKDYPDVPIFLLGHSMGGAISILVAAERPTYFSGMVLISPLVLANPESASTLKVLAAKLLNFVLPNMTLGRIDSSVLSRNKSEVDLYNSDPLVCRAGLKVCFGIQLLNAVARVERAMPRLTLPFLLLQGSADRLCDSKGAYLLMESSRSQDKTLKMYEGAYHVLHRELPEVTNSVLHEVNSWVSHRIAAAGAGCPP
Briefly: Inhibition of MAGL in mouse brain membrane assessed as protein band intensity at 25 uM pre-incubated for 25 mins followed by TAMRA-FP probe labeling for 5 mins by SDS-PAGE analysis relative to control. Also on record: scale not given: the % may be the effect or the level left. In kind it is cell membranes.

As to `CC(C)c1ccc(C(=O)C2CCN(C(=O)c3cc(O)ccc3F)CC2)cc1`, the results for the Activity in assay [1] and in assay [2] were 98% and 60%, respectively.
